Consider 1 compound from ChEMBL document CHEMBL1221172, “Identification of a specific inhibitor of the histone methyltransferase SU(VAR)3-9” (Nat Chem Biol, 2005).

Calls of active or inactive are those of the source. The rule behind the calls is not given here.

In data set [1] the target is Histone-lysine N-methyltransferase Su(var)3-9 (Drosophila melanogaster) (UniProt P45975). To be noted: SL2, 0.5 uM.
Description: Inhibition of SU(VAR)3-9 in Drosophila melanogaster SL2 cells assessed as inhibition of methylation at Lys79in Histone H3 at 0.5 uM by Western blot method
Data set [2] shares this target. To be noted: SL2, 0.5 uM. The source holds these as a separate data set.
Description: Inhibition of SU(VAR)3-9 in Drosophila melanogaster SL2 cells assessed as reduction of H3K9me3 at 0.5 uM by immunostaining method
For data set [3], the target named is T1, Histone-lysine N-methyltransferase EHMT2 (Mus musculus, UniProt Q9Z148).
T1 sequence (Q9Z148 whole entry): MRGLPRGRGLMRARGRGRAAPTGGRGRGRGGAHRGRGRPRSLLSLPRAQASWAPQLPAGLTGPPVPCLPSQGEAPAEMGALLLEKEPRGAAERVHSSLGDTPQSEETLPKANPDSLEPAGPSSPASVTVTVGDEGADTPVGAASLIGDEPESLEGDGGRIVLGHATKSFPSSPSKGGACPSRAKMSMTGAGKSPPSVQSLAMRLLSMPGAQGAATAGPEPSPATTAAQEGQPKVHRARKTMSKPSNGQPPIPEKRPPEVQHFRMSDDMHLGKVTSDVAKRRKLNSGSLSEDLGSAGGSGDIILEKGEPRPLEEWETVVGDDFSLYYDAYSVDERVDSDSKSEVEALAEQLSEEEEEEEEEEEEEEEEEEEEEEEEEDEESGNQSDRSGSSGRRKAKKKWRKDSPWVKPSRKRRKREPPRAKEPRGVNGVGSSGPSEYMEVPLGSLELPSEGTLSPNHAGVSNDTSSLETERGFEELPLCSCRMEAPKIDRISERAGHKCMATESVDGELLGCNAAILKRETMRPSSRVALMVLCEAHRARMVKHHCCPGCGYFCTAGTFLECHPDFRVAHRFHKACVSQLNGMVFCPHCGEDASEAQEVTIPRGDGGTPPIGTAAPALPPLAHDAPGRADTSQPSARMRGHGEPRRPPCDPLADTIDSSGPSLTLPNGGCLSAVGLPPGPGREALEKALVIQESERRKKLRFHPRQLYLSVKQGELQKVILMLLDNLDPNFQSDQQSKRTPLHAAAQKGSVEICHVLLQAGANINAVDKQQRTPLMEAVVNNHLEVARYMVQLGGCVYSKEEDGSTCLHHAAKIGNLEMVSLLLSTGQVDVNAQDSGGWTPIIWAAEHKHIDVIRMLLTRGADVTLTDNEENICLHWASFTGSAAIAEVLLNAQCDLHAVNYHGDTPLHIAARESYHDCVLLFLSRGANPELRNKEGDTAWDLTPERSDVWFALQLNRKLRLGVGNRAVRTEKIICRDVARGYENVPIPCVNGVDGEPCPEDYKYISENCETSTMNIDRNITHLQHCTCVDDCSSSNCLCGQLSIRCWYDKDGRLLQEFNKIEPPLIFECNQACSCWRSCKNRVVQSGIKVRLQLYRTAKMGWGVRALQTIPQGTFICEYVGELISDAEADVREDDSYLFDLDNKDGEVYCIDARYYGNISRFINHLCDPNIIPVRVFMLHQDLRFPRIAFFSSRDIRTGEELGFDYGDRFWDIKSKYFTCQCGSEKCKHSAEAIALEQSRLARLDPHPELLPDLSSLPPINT
Nature of the data set: Inhibition of mouse G9a.

For data set [4], the target named is Histone-lysine N-methyltransferase Su(var)3-9 (Drosophila melanogaster) (UniProt P45975). The following applies: SL2, 0.5 uM. This is another data set of the same source.
Description: Inhibition of SU(VAR)3-9 in Drosophila melanogaster SL2 cells assessed as inhibition of methylation at Lys36 in Histone H3 at 0.5 uM by MALDI-TOF MS
Data set [5] relates to SL-2. Nature of the data set: Cytotoxicity against Drosophila melanogaster SL-2 cells seeded at high density assessed as growth retardation for 24 to 48 hrs up to 0.5 uM. Format: cell-based.
For data set [6], the system named is SL-2. Nature of the data set: Cytotoxicity against Drosophila melanogaster SL-2 cells seeded at low density. In kind it is cell-based.
The target of data set [7] is Histone-lysine N-methyltransferase Su(var)3-9 (Drosophila melanogaster) (UniProt P45975). To be noted: SL2, 0.5 uM. The source holds these as a separate data set.
Description: Inhibition of SU(VAR)3-9 in Drosophila melanogaster SL2 cells assessed as inhibition of methylation at Lys36 in Histone H3 at 0.5 uM by Western blot method
For data set [8] the target is unchanged. To be noted: SL2, 0.1 uM.
Description: Inhibition of SU(VAR)3-9 in Drosophila melanogaster SL2 cells assessed as reduction of H3K9me2 at 0.1 uM after 5 days by MALDI-TOF MS seeded at 2.5 million cells/ml density
Data set [9] is described as follows: Inhibition of human SU(VAR)3-9.
The target of data set [10] is Histone-lysine N-methyltransferase Su(var)3-9 (Drosophila melanogaster) (UniProt P45975). The following applies: SL2, 0.5 uM. This is another data set of the same source.
Description: Inhibition of SU(VAR)3-9 in Drosophila melanogaster SL2 cells assessed as inhibition of methylation at Lys27 in Histone H3 at 0.5 uM by Western blot method
Data set [11] has the same target. The following applies: SL2, 0.5 uM. The source holds these as a separate data set.
Description: Inhibition of SU(VAR)3-9 in Drosophila melanogaster SL2 cells assessed as inhibition of methylation at Lys4in Histone H3 at 0.5 uM by MALDI-TOF MS
The target is the same in data set [12]. The following applies: SL2, 0.5 uM. This is another data set of the same source.
Description: Inhibition of SU(VAR)3-9 in Drosophila melanogaster SL2 cells assessed as inhibition of methylation at Lys79in Histone H3 at 0.5 uM by MALDI-TOF MS
Data set [13] shares this target. The following applies: SL2, 0.5 uM. This is another data set of the same source.
Description: Inhibition of SU(VAR)3-9 in Drosophila melanogaster SL2 cells assessed as reduction of H3K9me2 at 0.5 uM after 5 days by MALDI-TOF MS seeded at 2.5 million cells/ml density
The target is the same in data set [14]. The following applies: SL2, 0.5 uM. This is another data set of the same source.
Description: Inhibition of SU(VAR)3-9 in Drosophila melanogaster SL2 cells assessed as inhibition of methylation at Lys27 in Histone H3 at 0.5 uM by MALDI-TOF MS
Data set [15] has as its target T2, Histone-lysine N-methyltransferase, H3 lysine-9 specific dim-5 (Neurospora crassa, UniProt Q8X225).
T2 sequence (Q8X225 whole entry): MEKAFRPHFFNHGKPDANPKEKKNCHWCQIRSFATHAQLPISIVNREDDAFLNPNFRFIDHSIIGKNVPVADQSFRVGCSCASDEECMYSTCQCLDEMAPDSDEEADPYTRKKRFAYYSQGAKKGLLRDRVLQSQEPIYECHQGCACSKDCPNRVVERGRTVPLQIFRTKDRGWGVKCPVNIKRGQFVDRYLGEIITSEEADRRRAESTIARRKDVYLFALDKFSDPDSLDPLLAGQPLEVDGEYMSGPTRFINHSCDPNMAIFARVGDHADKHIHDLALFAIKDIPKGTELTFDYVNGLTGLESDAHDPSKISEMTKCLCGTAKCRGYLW
Nature of the data set: Inhibition of Neurospora crassa DIM5.

The target in data set [16] is Histone-lysine N-methyltransferase E(z) (Drosophila melanogaster, UniProt P42124). Nature of the data set: Inhibition of Drosophila melanogaster histone-lysine N-methyl-transferase E(z).
Data set [17] can be described thus: Inhibition of Drosophila melanogaster SET7/9.
Data set [18] deals with T3, Histone-lysine N-methyltransferase Set8 (Drosophila melanogaster, UniProt Q9VFK6).
T3 sequence (Q9VFK6 whole entry): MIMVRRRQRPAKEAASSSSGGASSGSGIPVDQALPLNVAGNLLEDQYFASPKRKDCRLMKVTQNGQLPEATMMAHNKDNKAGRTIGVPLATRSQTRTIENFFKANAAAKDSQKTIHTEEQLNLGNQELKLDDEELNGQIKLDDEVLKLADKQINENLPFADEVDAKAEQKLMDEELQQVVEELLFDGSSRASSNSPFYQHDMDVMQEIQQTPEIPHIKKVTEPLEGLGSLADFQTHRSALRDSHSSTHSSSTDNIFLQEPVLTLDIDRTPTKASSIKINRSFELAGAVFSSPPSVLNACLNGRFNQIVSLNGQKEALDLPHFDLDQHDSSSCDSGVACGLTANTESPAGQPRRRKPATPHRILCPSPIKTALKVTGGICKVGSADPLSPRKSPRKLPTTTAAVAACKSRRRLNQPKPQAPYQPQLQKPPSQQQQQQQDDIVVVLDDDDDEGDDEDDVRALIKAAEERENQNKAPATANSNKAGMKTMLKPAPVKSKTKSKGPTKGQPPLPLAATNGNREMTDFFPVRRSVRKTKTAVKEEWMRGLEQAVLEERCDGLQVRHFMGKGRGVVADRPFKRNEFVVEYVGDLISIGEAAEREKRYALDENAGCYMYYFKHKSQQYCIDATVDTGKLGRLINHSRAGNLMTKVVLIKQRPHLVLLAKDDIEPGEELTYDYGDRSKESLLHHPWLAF
Nature of the data set: Inhibition of Drosophila melanogaster PRSET2.

In data set [19] the target is Histone-lysine N-methyltransferase Su(var)3-9 (Drosophila melanogaster, UniProt P45975). Nature of the data set: Inhibition of Drosophila melanogaster SU(VAR)3-9.
The target in data set [20] is Histone-lysine N-methyltransferase Su(var)3-9 (Drosophila melanogaster) (UniProt P45975). To be noted: SL2, 0.5 uM. The source holds these as a separate data set.
Description: Inhibition of SU(VAR)3-9 in Drosophila melanogaster SL2 cells assessed as inhibition of methylation at Lys4in Histone H3 at 0.5 uM by Western blot method

Histone-lysine N-methyltransferase Su(var)3-9 (Drosophila melanogaster), sequence (P45975 whole entry): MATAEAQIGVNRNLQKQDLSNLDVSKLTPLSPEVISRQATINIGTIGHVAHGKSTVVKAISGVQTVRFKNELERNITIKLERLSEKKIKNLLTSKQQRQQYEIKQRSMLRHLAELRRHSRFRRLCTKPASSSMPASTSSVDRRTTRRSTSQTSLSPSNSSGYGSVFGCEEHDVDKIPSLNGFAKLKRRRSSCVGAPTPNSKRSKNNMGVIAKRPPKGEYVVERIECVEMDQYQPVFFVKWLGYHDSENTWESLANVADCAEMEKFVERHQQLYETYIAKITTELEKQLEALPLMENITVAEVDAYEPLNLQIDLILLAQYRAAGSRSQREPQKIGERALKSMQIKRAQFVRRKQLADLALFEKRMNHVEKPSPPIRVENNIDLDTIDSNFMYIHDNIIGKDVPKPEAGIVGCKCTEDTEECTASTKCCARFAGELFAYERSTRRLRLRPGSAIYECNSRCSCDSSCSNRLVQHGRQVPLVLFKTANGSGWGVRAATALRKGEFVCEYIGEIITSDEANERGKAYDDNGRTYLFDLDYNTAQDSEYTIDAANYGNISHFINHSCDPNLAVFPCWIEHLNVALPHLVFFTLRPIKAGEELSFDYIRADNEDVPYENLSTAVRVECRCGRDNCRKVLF
Histone-lysine N-methyltransferase E(z), sequence (P42124 whole entry): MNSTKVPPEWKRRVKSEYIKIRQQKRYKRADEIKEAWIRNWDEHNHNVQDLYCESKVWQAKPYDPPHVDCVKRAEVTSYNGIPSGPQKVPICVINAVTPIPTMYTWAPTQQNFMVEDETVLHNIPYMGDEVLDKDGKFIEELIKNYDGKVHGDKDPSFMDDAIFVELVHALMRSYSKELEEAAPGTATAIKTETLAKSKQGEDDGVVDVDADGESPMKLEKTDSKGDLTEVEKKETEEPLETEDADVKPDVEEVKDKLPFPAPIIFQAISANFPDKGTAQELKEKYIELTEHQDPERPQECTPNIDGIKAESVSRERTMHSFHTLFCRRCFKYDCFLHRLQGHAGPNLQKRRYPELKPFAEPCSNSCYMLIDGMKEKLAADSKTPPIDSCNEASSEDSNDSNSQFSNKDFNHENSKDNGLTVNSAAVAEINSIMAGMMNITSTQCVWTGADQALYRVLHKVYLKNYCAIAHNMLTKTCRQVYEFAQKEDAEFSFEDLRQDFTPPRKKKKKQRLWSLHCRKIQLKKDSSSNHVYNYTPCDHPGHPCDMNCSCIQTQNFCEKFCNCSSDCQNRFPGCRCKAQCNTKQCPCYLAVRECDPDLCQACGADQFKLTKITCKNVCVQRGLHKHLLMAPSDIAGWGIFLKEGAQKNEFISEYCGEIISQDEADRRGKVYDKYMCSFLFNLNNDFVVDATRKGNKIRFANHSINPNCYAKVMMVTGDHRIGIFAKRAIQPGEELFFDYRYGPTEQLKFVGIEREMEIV
Histone-lysine N-methyltransferase Su(var)3-9, sequence (P45975 whole entry): as the sequence (P45975 whole entry) above

With `CN1C(=O)[C@@]23C[C@]4([C@]56C[C@@]78SS[C@@](CO)(C(=O)N7[C@H]5Nc5ccccc56)N(C)C8=O)c5ccccc5N[C@@H]4N2C(=O)[C@]1(CO)SS3` [CHAETOCIN], the inhibition result in [1], in data set [4], in data set [7], in data set [10], in data set [11] and in [12] was “inactive” in each case. Besides, the inhibition entry in [14] and in data set [20] was “inactive” each time. In addition, the inhibition entry in [2], in data set [8] and in [13] was “Active” throughout. The IC50 in data set [3] is 2.5 µM; in [9], 0.8 µM; in [15], 3 µM; in data set [16], more than 90 µM; in [17], more than 180 µM; in [18], more than 180 µM. In [19], this compound yielded a half-inhibitory concentration (IC50) of 0.6 µM. For the same compound, the Activity result in the data set on SL-2 [5] is on record as “Non-toxic”; in the data set on SL-2 [6], “Toxic”.
